Non-standard residues stand in square brackets, D forms with d. Residues, ends and D or L forms follow the SMILES beside them.
Assays:
Format in all cases: cell-based
HepG2.2.15 cells = assay: HBeAg secretion ELISA in HepG2.2.15 cells; conditions: 0.1, 1, 10, 100 μM
Experimental: (§1) 3. Analysis of function of D-TTK001 on HBeAg secreation in liver cancer cells utilizing enzyme-linked immunosorbent assay (ELISA)
(§2) (i) Biosafety cabinet was ultraviolet sterilized for 30 min and purged for 30 min; DMEM/F12 (1:1) culture medium containing 15% fetal bovine serum, HepAD38 cells (or HepG2.2.15 cells) were taken out, sterilized with 75% alcohol, and placed in the biosafety cabinet.
(§3) (ii) Under aseptic conditions, discard old culture medium, add 3 mL 1×PBS each time, wash twice, add 1 mL 0.25% trypsin, the cells were digested until cell rounding as observed in microscope. Add 5 mL culture medium, dispense cells, count with hemocytometer, and dilute with culture medium to a cell number of 1˜2×10^4 cells/mL.
(iii) Plating 96-well plate. Under aseptic conditions, discard old culture medium, add 3 mL 1×PBS each time, wash twice, add 1 mL 0.05% trypsin, the cells were digested until cell rounding as observed in microscope. Add 10 mL culture medium, dispense cells, count with hemocytometer, and dilute with DMEM/F12(1:1) culture medium, add 100 μL cell suspension into each well to a cell number of 1˜2×10^3 cells/mL. […]
(§4) (x) Stopping: add 50 μL of stop solution into each well, gently shake and mix, measure the result in ten minutes. Set wavelength of microplate reader to 450 nm, measure OD value for each well after zero setting with blank wells.

[1] = tested on: liver cancer HepAD38 cells integrated with HVB DNA; assay: HBeAg secretion ELISA in HepAD38 cells
Experimental: as §1, §2, §3
(iii) Plating 96-well plate. Under aseptic conditions, discard old culture medium, add 3 mL 1×PBS each time, wash twice, add 1 mL 0.05% trypsin, the cells were digested until cell rounding as observed in microscope. Add 10 mL culture medium, dispense cells, count with hemocytometer, and dilute with DMEM/F12(1:1) culture medium, add 100 μL cell suspension into each well to a cell number of 1˜2×10^3 cells/mL. The outer-most wells are not added with cells. Culturing until cell attachment (usually 12 hrs.) and extension. Subsequent tests can be conducted when cells are in good condition.
(2) Applying D-TTK001 (or L-TTK001, i.e., anti-HBxP1#) to liver cancer HepAD38 cells (or HepG2.2.15 cells)
10 mM D-TTK001 (or L-TTK001) mother solution was serially diluted from high concentration to low concentration, added into liver cancer HepAD38 cells (or HepG2.2.15 cells) culture solution to obtain final concentrations of D-TTK001 (or L-TTK001) of 0.1 μM, 1 μM, 10 and 100 μM in respective groups. […]
(3) Applying ELISA to measure HBeAg content in HepAD38 cell (or HepG2.2.15 cell) culture medium
(i) Balancing: place HBeAg assay kit in room temperature for 30 min.
(ii) Preparing solution: dilute concentrated wash liquid for 25 times with purified water.
(iii) Taking out the plate: take out the reaction plate according to experimental requirements (3 wells for negative control, 1 well for positive control, and 1 well for blank control).
(iv) Adding sample: add 75 μL of test samples or negative/positive control into respective wells, gently shake and mix.
(v) Incubating: after sealed with microplate sealer, incubate at 37° C. for 60 min.
(vi) Adding enzyme: add 50 μL of enzyme conjugates into each well except for blank wells, gently shake and mix.
(vii) Incubating: after sealed with microplate sealer, incubate at 37° C. for 30 min.
(viii) Washing plate: remove microplate sealer carefully, manually wash plate for 5 times, pat dry.
(ix) Developing color: add 50 μL each of color-developing agent A and B liquid, gently shake and mix, develop color in dark placed at 37° C. for 30 min.
as §4
The invention also investigates the role of the functional variants of the polypeptide and functional fragments thereof. The sequences as shown in the following table are artificially synthesized D-amino acid substituted sequences on the basis of L-TTK001 (i.e., anti-HBxP1#). The polypeptide fragments were artificially synthesized according to the sequences (method as above), and then, above-mentioned ELISA method was adopted to observe the change in the functions of the polypeptides.

HepAD38 cells = assay: MTT assay, proliferation of HepAD38 cells; conditions: 0.1, 1, 10, 100 μM, 48 hrs
Experimental: (1) Plating cells: suspend HepAD38 cells at exponential phase in RPMI1640 medium with 10% FBS, and plate 4000-5000 cells in a 96-well plate with 100 μL per well.
(2) Culturing cells: within 12 hrs. for adhesion of cultured cells, add different concentrations of synthesized D-TTK001 (or L-TTK001) polypeptides from Example 1 (0.1 μM, 1 μM, 10 μM and 100 μM) into 8 wells for each concentration, and incubate for 48 hrs. in common condition.
(3) Coloration: add 20 μL of MTT solution (5 mg/mL MTT in PBS buffer (pH7.4)) for each well.
(4) Incubate for 4 hrs., and carefully aspirate off the supernatant from the wells. Add 150 μL of DMSO into each well, shake for 10 min until the crystals were dissolved.
(5) Comparison: Read in an ELISA reader at 490 nm to measure the absorbance for each well. Results were calculated using Student's t-test.

`CSCC[C@@H](NC(=O)[C@H](NC(=O)[C@@H](C)NC(=O)[C@@H](CO)NC(=O)CN)C(C)C)C(=O)N[C@H](Cc1ccccc1)C(=O)N[C@H](CO)C(=O)N[C@H](CO)C(=O)N[C@H](CCCCN)C(=O)N[C@H](CCC(=O)O)C(=O)N[C@H](CCCNC(=N)N)C(=O)NCC(=O)O` [D-TTK001, Gly-D-Ser-D-Ala-D-Val-D-Met-D-Phe-D-Ser-D-Ser-D-Lys-D-Glu-D-Arg-Gly] (H-G[dS][dA][dV][dM][dF][dS][dS][dK][dE][dR]G-OH; N-terminus and C-terminus assumed) was tested, and the “Minimum effective dose on HBeAg secretion levels” value (HepG2.2.15 cells) was 0.1 µM, the “Inhibition of HBeAg secretion levels” value ([1]; 10 μM) was “most significant effect” and the “Minimum effective dose on HBeAg secretion levels” value ([1]; 0.1, 1, 10, 100 μM) was 0.1 µM. For the same compound, the “Minimum effective dose on growth and proliferation (MTT)” value (HepAD38 cells) was 10 µM.

From patent US10570176B2, “Anti-hepatitis B virus X protein polypeptide pharmaceutical” (priority 2015, dated 2020)
